Measurements as given in ChEMBL document CHEMBL1201862, “PubChem BioAssay data set” (2004).
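Five concentrations, 48 hours, 96-well plates. At the GI50, growth is halved.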 Active and inactive are the calls of the source. No stated cut-off is given here; in the data, active = GI50 up to about 1.1 µM and inactive = higher.

Legend:
Assay in all cases: NCI tumour cell line growth inhibition, 48 h
MDA-N = test system: MDA-N
UACC-257 = test system: UACC-257
786-0 = test system: 786-0
DU-145 = test system: DU-145
K562 = test system: K562
UACC-62 = test system: UACC-62
HCT-116 = test system: HCT-116
Malme-3M = test system: Malme-3M
RPMI-8226 = test system: RPMI-8226
HL-60 = test system: HL-60
U-251 = test system: U-251
MDA-MB-435 = test system: MDA-MB-435
OVCAR-8 = test system: OVCAR-8
SF-539 = test system: SF-539
MCF7 = test system: MCF7
A549 = test system: A549
OVCAR-4 = test system: OVCAR-4
HOP-92 = test system: HOP-92
M14 = test system: M14
MDA-MB-231 = test system: MDA-MB-231

O=c1[nH]nc(Cc2ccccc2)[nH]1
GI50 (MDA-N): > 100 µM (inactive) | GI50 (UACC-257): > 100 µM (inactive) | GI50 (786-0): > 100 µM (inactive) | GI50 (DU-145): > 100 µM (inactive) | GI50 (K562): > 100 µM (inactive) | GI50 (UACC-62): > 100 µM (inactive) | GI50 (HCT-116): > 100 µM (inactive) | GI50 (Malme-3M): > 100 µM (inactive) | GI50 (RPMI-8226): > 100 µM (inactive) | GI50 (HL-60): > 100 µM (inactive) | GI50 (U-251): > 100 µM (inactive) | GI50 (MDA-MB-435): > 100 µM (inactive) | GI50 (OVCAR-8): > 100 µM (inactive) | GI50 (SF-539): > 100 µM (inactive) | GI50 (MCF7): > 100 µM (inactive) | GI50 (A549): > 100 µM (inactive) | GI50 (OVCAR-4): > 100 µM (inactive) | GI50 (HOP-92): > 100 µM (inactive) | GI50 (M14): > 100 µM (inactive)

O=c1oc2c/c(=C\c3ccc([N+](=O)[O-])cc3)c(=O)c3cccc1c3-2
GI50 (MDA-MB-231): > 100 µM (inactive) | GI50 (MDA-N): > 100 µM (inactive) | GI50 (UACC-257): > 100 µM (inactive) | GI50 (786-0): > 100 µM (inactive) | GI50 (DU-145): > 100 µM (inactive) | GI50 (K562): > 100 µM (inactive) | GI50 (UACC-62): > 100 µM (inactive) | GI50 (HCT-116): > 100 µM (inactive) | GI50 (Malme-3M): > 100 µM (inactive) | GI50 (RPMI-8226): > 100 µM (inactive) | GI50 (HL-60): > 100 µM (inactive) | GI50 (U-251): 28.6 µM (inactive) | GI50 (MDA-MB-435): > 100 µM (inactive) | GI50 (OVCAR-8): 30.8 µM (inactive) | GI50 (MCF7): > 100 µM (inactive) | GI50 (A549): > 100 µM (inactive) | GI50 (HOP-92): 52 µM (inactive) | GI50 (M14): > 100 µM (inactive)

COc1ccc(N2C=Nn3c(nc4sc(C)c(C)c4c3=O)C2)cc1
GI50 (MDA-MB-231): > 100 µM (inactive) | GI50 (MDA-N): > 100 µM (inactive) | GI50 (UACC-257): > 100 µM (inactive) | GI50 (786-0): 38.3 µM (inactive) | GI50 (DU-145): > 100 µM (inactive) | GI50 (K562): > 100 µM (inactive) | GI50 (UACC-62): > 100 µM (inactive) | GI50 (HCT-116): > 100 µM (inactive) | GI50 (Malme-3M): > 100 µM (inactive) | GI50 (RPMI-8226): > 100 µM (inactive) | GI50 (U-251): > 100 µM (inactive) | GI50 (MDA-MB-435): > 100 µM (inactive) | GI50 (OVCAR-8): > 100 µM (inactive) | GI50 (MCF7): > 100 µM (inactive) | GI50 (A549): > 100 µM (inactive) | GI50 (OVCAR-4): > 100 µM (inactive) | GI50 (HOP-92): > 100 µM (inactive) | GI50 (M14): > 100 µM (inactive)

CCOC(=O)C1=COC(C)(c2ccccc2)CC1=O (configuration not stated)
GI50 (MDA-MB-231): > 100 µM (inactive) | GI50 (MDA-N): > 100 µM (inactive) | GI50 (UACC-257): > 100 µM (inactive) | GI50 (786-0): > 100 µM (inactive) | GI50 (DU-145): > 100 µM (inactive) | GI50 (K562): > 100 µM (inactive) | GI50 (UACC-62): > 100 µM (inactive) | GI50 (HCT-116): > 100 µM (inactive) | GI50 (RPMI-8226): > 100 µM (inactive) | GI50 (U-251): > 100 µM (inactive) | GI50 (MDA-MB-435): > 100 µM (inactive) | GI50 (OVCAR-8): > 100 µM (inactive) | GI50 (SF-539): > 100 µM (inactive) | GI50 (MCF7): > 100 µM (inactive) | GI50 (A549): > 100 µM (inactive) | GI50 (OVCAR-4): > 100 µM (inactive) | GI50 (M14): > 100 µM (inactive)

O=C1c2ccccc2-c2nc(-c3ccccc3)cc3c2c1nc1ccccc13
GI50 (MDA-MB-231): 17.6 µM (inactive) | GI50 (MDA-N): 1.89 µM (inactive) | GI50 (UACC-257): 14.2 µM (inactive) | GI50 (786-0): 25.2 µM (inactive) | GI50 (DU-145): 13.9 µM (inactive) | GI50 (K562): 1 µM (active) | GI50 (UACC-62): 2.56 µM (inactive) | GI50 (HCT-116): 10.2 µM (inactive) | GI50 (Malme-3M): 4.7 µM (inactive) | GI50 (RPMI-8226): 0.479 µM (active) | GI50 (HL-60): 1.03 µM (active) | GI50 (U-251): 10.9 µM (inactive) | GI50 (MDA-MB-435): 1.87 µM (inactive) | GI50 (OVCAR-8): 16.4 µM (inactive) | GI50 (MCF7): 4.51 µM (inactive) | GI50 (A549): 16.9 µM (inactive) | GI50 (OVCAR-4): 26.7 µM (inactive) | GI50 (M14): 5.55 µM (inactive)

COC(=O)[C@]12CC3C=CC1N(C3)C(CBr)c1c2n(S(=O)(=O)c2ccccc2)c2ccccc12 (some centres not stated)
GI50 (MDA-MB-231): 57.1 µM (inactive) | GI50 (MDA-N): 60.1 µM (inactive) | GI50 (UACC-257): > 100 µM (inactive) | GI50 (786-0): 43 µM (inactive) | GI50 (DU-145): > 100 µM (inactive) | GI50 (K562): 0.118 µM (active) | GI50 (UACC-62): 57.3 µM (inactive) | GI50 (HCT-116): 47.9 µM (inactive) | GI50 (Malme-3M): 72.9 µM (inactive) | GI50 (RPMI-8226): 0.292 µM (active) | GI50 (HL-60): 35.1 µM (inactive) | GI50 (U-251): 63 µM (inactive) | GI50 (MDA-MB-435): 76.2 µM (inactive) | GI50 (OVCAR-8): 49 µM (inactive) | GI50 (MCF7): 46.9 µM (inactive) | GI50 (A549): 50.5 µM (inactive) | GI50 (OVCAR-4): 38.5 µM (inactive) | GI50 (M14): > 100 µM (inactive)

CCOC(=O)c1c(-c2ccc(Br)cc2)ccn1C
GI50 (MDA-MB-231): > 10 µM (inactive) | GI50 (MDA-N): > 10 µM (inactive) | GI50 (UACC-257): > 10 µM (inactive) | GI50 (786-0): > 10 µM (inactive) | GI50 (DU-145): > 10 µM (inactive) | GI50 (K562): > 10 µM (inactive) | GI50 (UACC-62): > 10 µM (inactive) | GI50 (HCT-116): > 10 µM (inactive) | GI50 (Malme-3M): > 10 µM (inactive) | GI50 (RPMI-8226): > 10 µM (inactive) | GI50 (HL-60): > 10 µM (inactive) | GI50 (U-251): > 10 µM (inactive) | GI50 (MDA-MB-435): > 10 µM (inactive) | GI50 (OVCAR-8): > 10 µM (inactive) | GI50 (SF-539): > 10 µM (inactive) | GI50 (MCF7): > 10 µM (inactive) | GI50 (A549): > 10 µM (inactive) | GI50 (OVCAR-4): > 10 µM (inactive) | GI50 (M14): > 10 µM (inactive)
